Results: patent publication US20040057908A1, “Oral compositions and use thereof” (priority 2003, published 2004)
Where “and” joins values, the source holds several entries; their conditions need not be identical. Equal values may be shown once. Entries after “also recorded” stand apart in the source; their conditions may differ.

How the values were obtained:
GTF B = biological target: T1, GTF B (Streptococcus mutans serotype c, UniProt P08987); test: GTF activity adsorbed onto saliva-coated hydroxyapatite (sHA) surface, GTF B; type: biochemical
T1 construct: made in house; host or cells: Streptococcus milleri KSB8 (culture supernatant)
T1 sequence (P08987 35-1476): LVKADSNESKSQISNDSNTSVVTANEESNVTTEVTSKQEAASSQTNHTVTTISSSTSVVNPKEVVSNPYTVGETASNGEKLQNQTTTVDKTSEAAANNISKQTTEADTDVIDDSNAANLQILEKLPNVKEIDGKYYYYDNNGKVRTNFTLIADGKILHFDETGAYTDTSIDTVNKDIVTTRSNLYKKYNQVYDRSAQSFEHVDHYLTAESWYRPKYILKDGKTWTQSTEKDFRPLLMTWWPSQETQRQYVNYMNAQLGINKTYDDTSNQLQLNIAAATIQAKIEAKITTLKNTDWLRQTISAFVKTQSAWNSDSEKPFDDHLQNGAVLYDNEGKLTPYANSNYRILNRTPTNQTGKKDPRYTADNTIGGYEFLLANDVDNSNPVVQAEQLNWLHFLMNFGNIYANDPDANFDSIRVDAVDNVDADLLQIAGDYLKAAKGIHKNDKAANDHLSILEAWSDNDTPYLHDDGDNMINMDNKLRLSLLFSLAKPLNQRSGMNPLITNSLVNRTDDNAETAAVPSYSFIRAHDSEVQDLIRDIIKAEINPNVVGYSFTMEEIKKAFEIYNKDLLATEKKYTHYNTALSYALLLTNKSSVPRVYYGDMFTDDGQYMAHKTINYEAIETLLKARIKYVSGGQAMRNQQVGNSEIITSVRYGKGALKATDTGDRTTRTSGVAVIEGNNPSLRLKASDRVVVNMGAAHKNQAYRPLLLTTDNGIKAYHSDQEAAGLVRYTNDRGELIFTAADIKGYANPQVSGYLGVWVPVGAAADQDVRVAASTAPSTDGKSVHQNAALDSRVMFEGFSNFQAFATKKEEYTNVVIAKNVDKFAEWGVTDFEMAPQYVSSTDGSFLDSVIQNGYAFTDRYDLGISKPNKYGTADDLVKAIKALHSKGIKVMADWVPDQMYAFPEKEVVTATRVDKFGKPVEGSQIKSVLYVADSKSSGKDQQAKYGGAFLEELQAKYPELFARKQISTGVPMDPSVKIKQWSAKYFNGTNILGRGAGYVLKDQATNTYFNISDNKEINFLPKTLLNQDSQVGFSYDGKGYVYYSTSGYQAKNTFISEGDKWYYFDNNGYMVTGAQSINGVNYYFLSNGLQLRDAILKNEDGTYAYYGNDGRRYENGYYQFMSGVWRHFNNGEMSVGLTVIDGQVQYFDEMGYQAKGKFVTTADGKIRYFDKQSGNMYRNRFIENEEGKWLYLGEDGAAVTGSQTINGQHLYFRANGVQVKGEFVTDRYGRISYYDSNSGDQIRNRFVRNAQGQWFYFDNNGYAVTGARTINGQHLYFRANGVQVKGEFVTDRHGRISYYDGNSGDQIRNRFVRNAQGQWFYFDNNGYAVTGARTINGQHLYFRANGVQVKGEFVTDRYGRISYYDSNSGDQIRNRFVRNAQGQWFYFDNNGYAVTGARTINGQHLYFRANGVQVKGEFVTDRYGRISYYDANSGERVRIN
Method: (§1) Glucosyltransferase activity was measured by the incorporation of [^14C-glucose] from labeled sucrose (NEN Research Products, Boston, Mass.) into glucans (Germaine et al., 1974; Venkitaraman et al., 1995). The GTF enzyme added to each sample for all assays was equivalent to the amount required to incorporate 1.0-1.5 μmol of glucose over the four hours reaction (1.0-1.5 units).
(§2) For surface assays, the GTFs were adsorbed to hydroxyapatite beads coated with clarified whole saliva (free of GTF activity), as detailed elsewhere (Koo et al., 2000c; Schilling and Bowen, 1988, Venkitaraman et al., 1995). The saliva-coated hydroxyapatite (sHA) beads were exposed to sufficient enzyme to saturate the surface as determined experimentally. Following the adsorption of the enzyme, the beads were washed 3 times with buffer to remove the loosely bound material and exposed to 300 μl of the two-fold dilution series of test compounds (or control) for 30 min. at the same concentrations described above. The beads were washed and exposed to 300 μl [^14C-glucose]-sucrose substrate (100.0 mmol/l sucrose, final concentration). The radiolabeled glucan formed was collected and quantified by scintillation counting (Germaine et al., 1974; Venkitaraman et al., 1995). All the solution and surface assays were done in quadruplicate in at least 3 different experiments.

GTF C = biological target: T2, GTF C (Streptococcus mutans serotype c, UniProt P13470); test: GTF activity in solution, GTF C; type: biochemical; details: read-out: GTF C sol. % of Inhib.
T2 construct: The supernatant was carefully collected as the source of GTF C; made in house; host or cells: Streptococcus mutans WHB 410 (endogenous gtfC; urea/Triton extract of washed cells, hydroxyapatite chromatography)
T2 sequence (P13470 35-1455): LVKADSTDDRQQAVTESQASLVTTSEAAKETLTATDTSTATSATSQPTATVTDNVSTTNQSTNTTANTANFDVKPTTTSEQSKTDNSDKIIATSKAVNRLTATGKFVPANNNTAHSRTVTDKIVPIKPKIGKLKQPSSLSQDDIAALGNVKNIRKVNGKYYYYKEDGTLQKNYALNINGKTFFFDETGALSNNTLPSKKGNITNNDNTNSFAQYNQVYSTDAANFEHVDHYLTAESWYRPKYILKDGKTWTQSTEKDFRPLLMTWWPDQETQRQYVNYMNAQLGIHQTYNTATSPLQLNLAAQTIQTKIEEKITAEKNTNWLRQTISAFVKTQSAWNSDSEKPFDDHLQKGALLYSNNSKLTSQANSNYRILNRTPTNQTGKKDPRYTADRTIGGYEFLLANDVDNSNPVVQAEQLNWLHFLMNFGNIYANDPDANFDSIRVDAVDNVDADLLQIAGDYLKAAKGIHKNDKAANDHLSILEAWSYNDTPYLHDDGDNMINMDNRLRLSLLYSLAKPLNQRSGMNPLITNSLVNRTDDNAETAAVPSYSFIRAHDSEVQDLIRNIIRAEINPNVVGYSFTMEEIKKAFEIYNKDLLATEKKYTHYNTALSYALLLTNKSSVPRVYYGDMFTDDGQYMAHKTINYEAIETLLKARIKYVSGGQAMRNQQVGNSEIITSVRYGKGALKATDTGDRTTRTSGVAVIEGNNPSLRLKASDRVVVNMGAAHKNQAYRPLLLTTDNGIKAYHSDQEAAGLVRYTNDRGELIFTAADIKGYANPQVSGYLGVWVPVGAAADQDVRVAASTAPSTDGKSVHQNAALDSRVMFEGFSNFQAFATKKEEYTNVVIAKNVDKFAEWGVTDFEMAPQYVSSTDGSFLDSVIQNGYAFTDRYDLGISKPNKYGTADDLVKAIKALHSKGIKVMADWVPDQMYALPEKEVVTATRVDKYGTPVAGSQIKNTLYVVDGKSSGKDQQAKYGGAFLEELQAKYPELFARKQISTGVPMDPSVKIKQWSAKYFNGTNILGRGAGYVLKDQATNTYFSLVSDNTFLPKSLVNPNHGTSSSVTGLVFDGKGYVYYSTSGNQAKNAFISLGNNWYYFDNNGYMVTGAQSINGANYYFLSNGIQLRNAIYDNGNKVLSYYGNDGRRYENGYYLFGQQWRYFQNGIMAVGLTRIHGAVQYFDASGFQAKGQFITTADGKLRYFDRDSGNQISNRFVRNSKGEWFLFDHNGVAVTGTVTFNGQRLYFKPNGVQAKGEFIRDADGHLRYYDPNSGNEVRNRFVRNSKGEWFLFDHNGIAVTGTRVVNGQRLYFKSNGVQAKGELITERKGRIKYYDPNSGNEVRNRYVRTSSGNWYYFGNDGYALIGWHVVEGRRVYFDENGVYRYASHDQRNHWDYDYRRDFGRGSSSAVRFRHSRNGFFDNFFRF
Method: as §1
For solution assays, purified GTF B, C, D and Ss were mixed with a two-fold dilution series of the test compounds (concentration ranging from 125 to 500 μM) and incubated with [^14C-glucose]-sucrose substrate (0.2 μCi/ml) (200.0 mmol/l sucrose, 40 μmol/l dextran 9000, 0.02% sodium azide in adsorption buffer—50 mM KCl, 1.0 mM KPO4, 1.0 mM CaCl2, 0.1 mM MgCl2−pH=6.5) to reach a final concentration of 100 mmol/l sucrose (200 μl final volume). For the control, the same reaction was carried out, where ethanol:DMSO (final concentration of 7.5% and 1.25%, v/v) or ethanol (final concentration of 5%, v/v) replaced the test agent solutions. The samples were incubated 37° C. with rocking for 4 h. After incubation, ice-cold ethanol (1.0 ml) was added and the samples were stored for 18 h, 4° C. for precipitation of glucans. Radiolabeled glucan was determined by scintillation counting (Germaine et al., 1974; Venkitaraman et al., 1995).

streptococcal GTFs [1] = tested on: T3, streptococcal GTFs; test: GTF activity in solution, all GTFs (B, C, D, Ss) stated together; type: biochemical, Streptococcus mutans, S. sanguinis; details: 1.33 mM
T3 construct: Streptococcus milleri KSB8, which harbors the gtfB gene from S. mutans GS-5 (for GTF B production)
Method: The GTF enzyme added to each sample for all assays was equivalent to the amount required to incorporate 1.0-1.5 μmol of glucose over the four hours reaction (1.0-1.5 units).
The samples were incubated 37° C. with rocking for 4 h.
For this assay, a one-way layout experimental design was used in 4×2×7 factorial scheme (enzyme×state×dose). An analysis of variance was carried out and qualitative treatments were compared using Tukey test at level of 5% of significance (p<0.05). A non-linear regression was applied in order to evaluate effects of different concentrations.

streptococcal GTFs [2] = tested on: T3, streptococcal GTFs; test: GTF activity adsorbed onto sHA surface, all GTFs stated together; type: biochemical, Streptococcus mutans, S. sanguinis; details: 1.33 mM
Method: as §1
as §2, with “experiments. […]” for “experiments.”

[3] = tested on: Mutans Streptococci Strains; test: MIC and MBC, broth dilution, all strains stated together; type: cell-based, S. mutans (GS-5 and UA159) and S. sobrinus 6715; details: Streptococcus mutans; all strains tested (S. mutans GS-5, UA159, S. sobrinus 6715); read-out: MIC
Method: The minimum inhibitory concentration (MIC) and minimum bactericidal concentration (MBC) were determined for each test compound according to the National Committee for Clinical Laboratory Standards guidelines (Tentative standard M26-T, 1992; NCCLS Publication No. M7-A5, 2000) and Koo et al. (2000b). The broth microdilution and macrodilution methods (in TSB) were used for the antibacterial tests. The starting inoculum was 5×10^5 CFU/ml and the concentrations of test compounds ranged from 15.6 to 500 μM (two-fold dilutions). The MICs and MBCs were determined in quadruplicate in at least 3 different experiments.

[4] = tested on: S. mutans UA159 and S. sobrinus 6715 biofilms; test: Time-kill assay in 5-day-old biofilms; type: cell-based; details: 1.33 mM (fluoride 250 ppm)
Method: Cells of mutans streptococci were grown in tryptone-yeast extract broth with addition of 1% (w/v) sucrose at 37° C. and 5% CO2. […] The killing assays were performed according to Phan et al. (2000). […] The homogenized suspension was serially diluted (10^1 to 10^4) and plated on tryptic soy agar or blood agar by means of a spiral plater (Autoplate model 3000, Spiral Biotech, Inc., Bethesda, Md). […] Killing curves were constructed by plotting log10 CFU/ml versus time over 4 h. All the assays were carried out in quadruplicate on at least 3 different occasions. Bactericidal effect was defined as a ≧3 log10 decreases in the CFU/ml from initial viable counts, at time zero. The potential for drug carry-over to produce falsely low viability counts was minimized by dilution of inocula and plating of small volumes of diluted samples (50 μl).

[5] = tested on: Streptococcus sobrinus 6715; test: Rat caries experiment: S. sobrinus recovered from the jaws; type: in vivo, Sprague Dawley rats; details: rats, topical twice daily, five weeks; 1.33 mM (fluoride 250 ppm); means (SD)
Method: Seven litters of ten female Sprague Dawley rats aged 14 days were purchased with their dams from Charles River (Kingston, N.Y., USA). […] The experiment proceeded for five weeks, at which time the animals were killed by CO2 asphyxiation. The lower left jaw was aseptically dissected, suspended in 5.0 mL of sterile saline solution, and sonicated (three 10-second pulses with 5-second intervals at 30 watts, Branson Sonifier 450). The suspension was plated on mitis salivarius agar plus streptomycin to estimate S. sobrinus population and on blood agar to determine total cultivable flora (TCF). […] The determination of caries score was blind by codification of the jaws and was done by 1 calibrated examiner. […] The level of significance was 5%.

biofilms = test: Formation of biofilms (continued research); type: cell-based
[6] = read-out: GTF B surf. % of Inhib.

SMILES: O=c1cc(-c2ccc(O)cc2)oc2cc(O)cc(O)c12 [Apigenin]
- IC50 (GTF B; IC50 for surface-adsorbed GTF B, surface-adsorbed): 478 µM and 474 µM
- inhibition at 125 µM (GTF B; [6]): 31.8%
- inhibition at 250 µM (GTF B; [6]): 40%
- inhibition at 500 µM (GTF B; [6]): 55.5%
- inhibition at 125 µM (GTF C): 77.5%
- inhibition at 250 µM (GTF C): 87.5%
- inhibition at 500 µM (GTF C): 90.5%
- inhibition of GTFs in solution (streptococcal GTFs [1]): 90-95%
- inhibition of GTFs on a surface (streptococcal GTFs [2]): 60-70%
- MIC [3]: > 500 µM
- antibacterial activity against mutans streptococci biofilms (in words) [4]: devoid of antibacterial effects; also recorded: negligible antibacterial activity
- Infection by S. sobrinus, % [5]: 40.6 (14.2)^ab %
- formation of biofilms (in words) (biofilms): inhibits formation of biofilms
